In patent US7625841B2, “Substituted thiene-3-ylsulphonylamino(thio)carbonyltriazolin(ethi)ones” (Bayer CropScience AG, priority 2001, dated 2009):

What was measured:
Type in all cases: in vivo
maize = assay: Pre-emergence test/greenhouse; details: greenhouse, application rate 15 gai/ha, rated after three weeks, 0%=no effect, 100%=total destruction; for plant injury at 15 g/ha: Zea mays, 504 h, read-out: degree of damage to the plants, maize
Experimental: (§1) • Solvent: 5 parts by weight of acetone • Emulsifier: 1 part by weight of alkylaryl polyglycol ether
(§2) To produce a suitable preparation of active compound, 1 part by weight of active compound is mixed with the stated amount of solvent, the stated amount of emulsifier is added and the concetrate is diluted with water to the desired concentration.
(§3) Seeds of the test plants are sown in normal soil. After 24 hours, the soil is sprayed with the preparation of active compound such that the particular amount of active compound desired is applied per unit area. The concentration of active compound in the spray liquor is chosen such that the particular amount of active compound desired is applied in 1000 litres of water per hectare.
(§4) After three weeks, the degree of damage to the plants is rated in % damage in comparison to the development of the untreated control. The figures denote: • 0%=no effect (like untreated control) • 100%=total destruction

Solanum = assay: Pre-emergence test/greenhouse; details: greenhouse, application rate 15 gai/ha, rated after three weeks, 0%=no effect, 100%=total destruction
Experimental: as §1, §2, §3, §4

Amaranthus = assay: Pre-emergence test/greenhouse; details: greenhouse, application rate 15 gai/ha, rated after three weeks, 0%=no effect, 100%=total destruction
Experimental: as §1, §2, §3, §4

soybeans = assay: Pre-emergence test/greenhouse; details: greenhouse, application rate 15 gai/ha, rated after three weeks, 0%=no effect, 100%=total destruction
Experimental: as §1, §2, §3, §4

Chenopodium = assay: Pre-emergence test/greenhouse; details: greenhouse, application rate 15 gai/ha, rated after three weeks, 0%=no effect, 100%=total destruction
Experimental: as §1, §2, §3, §4

Setaria [1] = assay: Pre-emergence test/greenhouse; details: greenhouse, application rate 15 gai/ha, rated after three weeks, 0%=no effect, 100%=total destruction
Experimental: as §1, §2, §3, §4

Stellaria = assay: Pre-emergence test/greenhouse; details: greenhouse, application rate 15 gai/ha, rated after three weeks, 0%=no effect, 100%=total destruction; for pest or weed control at 15 g/ha: Stellaria, 504 h, read-out: degree of damage to the plants, Stellaria
Experimental: as §1, §2, §3, §4

Lolium [2] = assay: Pre-emergence test/greenhouse; details: greenhouse, application rate 15 gai/ha, rated after three weeks, 0%=no effect, 100%=total destruction; for pest or weed control at 15 g/ha: Lolium, 504 h, read-out: degree of damage to the plants, Lolium
Experimental: as §1, §2, §3, §4

weeds [3] = assay: Pre-emergence test, summary for weeds
Experimental: as §1, §2, §3, §4

[4] = tested on: crop plants, such as, for example, maize, soyabean and wheat; assay: Pre-emergence test, summary for crop plants
Experimental: as §1, §2, §3, §4

[5] = tested on: crop plants such as, for example, maize, oilseed rape and wheat; assay: Post-emergence test, summary for crop plants
Experimental: as §1
(§5) To produce a suitable preparation of active compound, 1 part by weight of active compound is mixed with the stated amount of solvent, the stated amount of emulsifier is added and the concentrate is diluted with water to the desired concentration.
(§6) Test plants of a height of 5-15 cm are sprayed with the preparation of active compound such that the particular amounts of active compound desired are applied per unit area. The concentration of the spray liquor is chosen such that the particular amounts of active compound desired are applied in 1000 l of water/ha.
(§7) After three weeks, the degree of damage to the plants is rated in % damage in comparison to the development of the untreated control.
(§8) The figures denote: • 0%=no effect (like untreated control) • 100%=total destruction

wheat = assay: Pre-emergence test/greenhouse; details: greenhouse, application rate 15 gai/ha, rated after three weeks, 0%=no effect, 100%=total destruction; for plant injury at 15 g/ha: Triticum aestivum, 504 h, read-out: degree of damage to the plants, wheat
Experimental: as §1, §2, §3, §4

Digitaria [6] = assay: Pre-emergence test/greenhouse; details: greenhouse, application rate 15 gai/ha, rated after three weeks, 0%=no effect, 100%=total destruction
Experimental: as §1, §2, §3, §4

Avena fatua [7] = assay: Post-emergence test/greenhouse; details: greenhouse, application rate 15 gai/ha, rated after three weeks, 0%=no effect, 100%=total destruction
Experimental: as §1, §5, §6, §7, §8

Digitaria [8] = assay: Post-emergence test/greenhouse; details: greenhouse, application rate 15 gai/ha, rated after three weeks, 0%=no effect, 100%=total destruction
Experimental: as §1, §5, §6, §7, §8

Bromus [9] = assay: Post-emergence test/greenhouse; details: greenhouse, application rate 15 gai/ha, rated after three weeks, 0%=no effect, 100%=total destruction
Experimental: as §1, §5, §6, §7, §8

Setaria [10] = assay: Post-emergence test/greenhouse; details: greenhouse, application rate 15 gai/ha, rated after three weeks, 0%=no effect, 100%=total destruction
Experimental: as §1, §5, §6, §7, §8

Echinochloa = assay: Post-emergence test/greenhouse; details: greenhouse, application rate 15 gai/ha, rated after three weeks, 0%=no effect, 100%=total destruction
Experimental: as §1, §5, §6, §7, §8

Lolium [11] = assay: Post-emergence test/greenhouse; details: greenhouse, application rate 15 gai/ha, rated after three weeks, 0%=no effect, 100%=total destruction
Experimental: as §1, §5, §6, §7, §8

weeds [12] = assay: Post-emergence test, summary for weeds
Experimental: as §1, §5, §6, §7, §8

Avena fatua [13] = assay: Pre-emergence test/greenhouse; details: greenhouse, application rate 15 gai/ha, rated after three weeks, 0%=no effect, 100%=total destruction
Experimental: as §1, §2, §3, §4

Matricaria = assay: Pre-emergence test/greenhouse; details: Matricaria, 504 h, greenhouse, application rate 15 gai/ha, rated after three weeks, 0%=no effect, 100%=total destruction, read-out: degree of damage to the plants, Matricaria
Experimental: as §1, §2, §3, §4

Bromus [14] = assay: Pre-emergence test/greenhouse; details: greenhouse, application rate 15 gai/ha, rated after three weeks, 0%=no effect, 100%=total destruction
Experimental: as §1, §2, §3, §4

Alopecurus = assay: Pre-emergence test/greenhouse; details: greenhouse, application rate 15 gai/ha, rated after three weeks, 0%=no effect, 100%=total destruction
Experimental: as §1, §2, §3, §4

Xanthium = assay: Pre-emergence test/greenhouse; details: Xanthium, 504 h, greenhouse, application rate 15 gai/ha, rated after three weeks, 0%=no effect, 100%=total destruction, read-out: degree of damage to the plants, Xanthium
Experimental: as §1, §2, §3, §4

Galium = assay: Pre-emergence test/greenhouse; details: greenhouse, application rate 15 gai/ha, rated after three weeks, 0%=no effect, 100%=total destruction
Experimental: as §1, §2, §3, §4

Polygonum = assay: Pre-emergence test/greenhouse; details: greenhouse, application rate 15 gai/ha, rated after three weeks, 0%=no effect, 100%=total destruction
Experimental: as §1, §2, §3, §4

Compound	degree of damage to the plants, Solanum (Solanum)	degree of damage to the plants, Amaranthus (Amaranthus)	degree of damage to the plants, soybeans (soybeans)	degree of damage to the plants, Chenopodium (Chenopodium)	degree of damage to the plants, Setaria (Setaria [1])	degree of damage to the plants, Digitaria (Digitaria [6])	degree of damage to the plants, Avena fatua (Avena fatua [13])	plant injury at 15 g/ha (wheat)	pest or weed control at 15 g/ha (Matricaria)	plant injury at 15 g/ha (maize)	degree of damage to the plants, Bromus (Bromus [14])	degree of damage to the plants, Alopecurus (Alopecurus)	pest or weed control at 15 g/ha (Xanthium)	degree of damage to the plants, Galium (Galium)	pest or weed control at 15 g/ha (Stellaria)	degree of damage to the plants, Polygonum (Polygonum)	pest or weed control at 15 g/ha (Lolium [2])	further results
CCOc1nn(C(=O)NS(=O)(=O)c2c(C(=O)OC)csc2C)c(=O)n1CC [Example 38]	100%	100%	0%	95%	95%	–	–	–	–	–	–	–	–	–	–	–	–	degree of damage to the plants, maize (maize): 0%; degree of damage to the plants, Stellaria (Stellaria): 100%; degree of damage to the plants, Lolium (Lolium [2]): 80%; activity against weeds compared with the known compounds (A) to (G) (weeds [3]): considerably stronger activity against weeds; tolerance by crop plants [4]: tolerated well by crop plants
CCOn1c(CC)nn(C(=O)NS(=O)(=O)c2c(C(=O)OC)csc2C)c1=O [Example 39]	95%	100%	–	–	100%	100%	–	–	–	–	–	–	–	–	–	–	–	compatibility with crop plants compared with the known compounds (A) and (B) [5]: substantially better compatibility with crop plants; degree of damage to the plants, wheat (wheat): 0%; degree of damage to the plants, Stellaria (Stellaria): 100%; degree of damage to the plants, Lolium (Lolium [2]): 95%; activity against weeds compared with the known compounds (A) to (G) (weeds [3]): considerably stronger activity against weeds; degree of damage to the plants, Avena fatua (Avena fatua [7]): 90%; degree of damage to the plants, Digitaria (Digitaria [8]): 95%; degree of damage to the plants, Bromus (Bromus [9]): 95%; degree of damage to the plants, Setaria (Setaria [10]): 95%; degree of damage to the plants, Echinochloa (Echinochloa): 100%; degree of damage to the plants, Lolium (Lolium [11]): 95%; activity against weeds compared with the known compounds (A) and (B) (weeds [12]): considerably stronger activity against weeds; tolerance by crop plants [4]: tolerated well by crop plants
COC(=O)c1csc(C)c1S(=O)(=O)NC(=O)n1nc(C2CC2)n(C2CC2)c1=O [(D), methyl 4-[[[(3,4-dicyclopropyl-4,5-dihydro-5-oxo-1H-1,2,4-triazol-1-yl)carbonyl]-amino]sulfonyl]-5-methyl-3-thiophenecarboxylate, reference compound]	80%	80%	0%	0%	10%	20%	70%	0%	10%	20%	10%	0%	0%	0%	60%	10%	20%	–
COC(=O)c1csc(C)c1S(=O)(=O)NC(=O)n1nc(C)n(C)c1=O [(E), methyl 4-[[[(4,5-dihydro-3,4-dimethyl-5-oxo-1H-1,2,4-triazol-1-yl)carbonyl]-amino]sulfonyl]-5-methyl-3-thiophenecarboxylate, reference compound]	70%	10%	0%	0%	20%	0%	0%	0%	20%	0%	20%	20%	0%	0%	40%	20%	0%	–
COC(=O)c1csc(C)c1S(=O)(=O)NC(=O)n1nc(OC(C)C)n(C2CC2)c1=O [(C), methyl 4-[[[(4-cyclopropyl-4,5-dihydro-5-oxo-3-isopropoxy-1H-1,2,4-triazol-1-yl)-carbonyl]amino]sulfonyl]-5-methyl-3-thiophenecarboxylate, reference compound]	–	80%	0%	40%	50%	20%	50%	0%	80%	0%	70%	0%	0%	70%	80%	60%	50%	–
COC(=O)c1csc(C)c1S(=O)(=O)NC(=O)n1nc(SC)n(C)c1=O [(G), methyl 4-[[[(4,5-dihydro-4-methyl-3-methylthio-5-oxo-1H-1,2,4-triazol-1-yl)carbonyl]amino]sulfonyl]-5-methyl-3-thiophenecarboxylate, reference compound]	80%	40%	50%	50%	70%	50%	50%	0%	70%	0%	–	–	40%	30%	80%	70%	60%	–
CCc1nn(C(=O)NS(=O)(=O)c2c(C(=O)OC)csc2C)c(=O)n1C [(F), methyl 4-[[[(4,5-dihydro-3-ethyl-4-methyl-5-oxo-1H-1,2,4-triazol-1-yl)carbonyl]-amino]sulfonyl]-5-methyl-3-thiophenecarboxylate, reference compound]	80%	40%	10%	0%	30%	60%	60%	0%	20%	0%	70%	70%	0%	10%	70%	50%	40%	–
